Assay results taken from patent US20040192553A1, “Inosine L-Arginine salt and uses thereof” (priority 2001, published 2004).

Experiments:
[1] = Test of velocity of dissolution; assay type: physicochemical; conditions: 1.2 mmol added to 10 mL of water with stirring at room temperature
Protocol: Test of Velocity of Dissolution
Each of the following was added to separate containers containing 10 mL of water with stirring at room temperature: (a) a mixture (0.53 g) of 1.2 mmol of inosine and 1.2 mmol of L-arginine, (b) 1.2 mmol (0.53 g) of the inosine. L-arginine salt obtained in Example 1, and (3) 1.2 mmol (0.32 g) of inosine. The time period for complete dissolution was measured for each. The equimolar mixture of inosine and L-arginine required 50 seconds for complete dissolution. On the other hand, inosine. […] L-arginine salt were confirmed.

[2] = at normal temperatures; cited from earlier work
[3] = tested on: Lawn seedlings (Western lawn: bent grass); assay: Plant growth promoting effect, hydroponic culture of lawn seedlings; assay type: in vivo; conditions: hydroponics in HYPONEX diluted 2,000-fold, inosine concentration 20 ppm, after a month of culturing
Protocol: Plant Growth Promoting Effect
Lawn seedlings (Western lawn: bent grass) were raised and divided into two groups each containing 30 plants. Hydroponics were performed as follows. Both the control group and the inosine. L-arginine salt group were cultured using HYPONEX, diluted by a facter of 2,000. The HYPONEX diluted by a facter of 2000 alone was used as culture fluid for the control group. Inosine- L-arginine salt was added to the culture fluid to an inosine concentration of 20 ppm.
After a month of culturing, the average plant length, the average root length, the number of leaves for 30 plants, the number of branching of a stem for 30 plants, the weight for 30 plants, and the dried weight for 30 plants were measured for each group. From the Table, the effectiveness of inosine. L-arginine salt was confirmed.

| Compound | time period for complete dissolution [1] | solubility in water [2] | Dried weight per 30 plants [3] | Number of branching per 30 plants [3] | Number of leaves per 30 plants [3] | Weight per 30 plants [3] | Average plant length ([3]; 30 plants) | Average root length ([3]; 30 plants) |
| --- | --- | --- | --- | --- | --- | --- | --- | --- |
| OC[C@H]1O[C@@H](n2cnc3c(O)ncnc32)[C@H](O)[C@@H]1O [inosine] | did not completely dissolve | about 1.6% |  |  |  |  |  |  |
| N=C(N)NCCC[C@H](N)C(=O)O.OC[C@H]1O[C@@H](n2cnc3c(O)ncnc32)[C@H](O)[C@@H]1O [inosine · L-arginine salt, inosine. L-arginine salt] | dissolved immediately |  | 0.0434 g | 37 | 102 | 0.13 g | 6.0 cm | 5.0 cm |
